# Where two headings read alike, the source gives them in different places.
# What was measured:
# human α1A‐adrenoceptor [1] = target: T1, human α1A‐adrenoceptor (Homo sapiens, UniProt P35348); experiment: ERK1/2‐phosphorylation (Surefire Alphascreen), CHO‐α1A cells; format: cell-based
# T1 construct: expressed in transfected cells; host or cells: CHO-K1
# T1 sequence (P35348 1-466): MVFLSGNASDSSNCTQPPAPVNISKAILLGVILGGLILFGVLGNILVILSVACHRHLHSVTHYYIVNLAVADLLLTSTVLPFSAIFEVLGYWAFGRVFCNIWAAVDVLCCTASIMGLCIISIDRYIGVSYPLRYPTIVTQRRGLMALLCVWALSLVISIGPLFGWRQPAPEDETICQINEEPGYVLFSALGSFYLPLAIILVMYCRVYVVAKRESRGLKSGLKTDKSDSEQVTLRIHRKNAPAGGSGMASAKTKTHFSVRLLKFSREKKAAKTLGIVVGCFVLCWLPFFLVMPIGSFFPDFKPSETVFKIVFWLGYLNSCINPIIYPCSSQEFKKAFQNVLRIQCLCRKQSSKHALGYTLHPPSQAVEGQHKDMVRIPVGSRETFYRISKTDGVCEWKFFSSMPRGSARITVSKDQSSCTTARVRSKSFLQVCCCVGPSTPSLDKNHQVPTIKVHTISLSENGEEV
# [2] = system: parental CHO cell line without any transfected receptors; experiment: ERK1/2‐phosphorylation, parent CHO cells without transfected receptors; format: cell-based, Chinese hamster
# human α1B‐adrenoceptor [3] = target: T2, human α1B‐adrenoceptor (Homo sapiens, UniProt P35368); experiment: Intracellular free calcium mobilization, CHO‐α1B cells; format: cell-based
# T2 construct: expressed in transfected cells; host or cells: CHO-K1
# T2 sequence (P35368 1-520): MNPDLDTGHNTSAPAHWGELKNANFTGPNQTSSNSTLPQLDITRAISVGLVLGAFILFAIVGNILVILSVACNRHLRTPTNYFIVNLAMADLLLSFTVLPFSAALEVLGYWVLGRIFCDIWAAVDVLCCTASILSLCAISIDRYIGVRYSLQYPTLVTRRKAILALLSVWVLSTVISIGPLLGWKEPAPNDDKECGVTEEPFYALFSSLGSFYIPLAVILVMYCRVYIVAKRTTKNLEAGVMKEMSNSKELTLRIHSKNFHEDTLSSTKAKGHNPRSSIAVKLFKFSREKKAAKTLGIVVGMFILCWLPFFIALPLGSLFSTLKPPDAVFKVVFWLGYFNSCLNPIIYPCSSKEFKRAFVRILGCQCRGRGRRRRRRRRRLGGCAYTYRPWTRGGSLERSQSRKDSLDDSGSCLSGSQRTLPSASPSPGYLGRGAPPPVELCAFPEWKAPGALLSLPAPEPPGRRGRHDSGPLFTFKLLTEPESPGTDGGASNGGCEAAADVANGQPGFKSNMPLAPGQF
# human α1B‐adrenoceptor [4] = target: T2, human α1B‐adrenoceptor; experiment: ERK1/2‐phosphorylation (Surefire Alphascreen), CHO‐α1B cells; format: cell-based
# human α1A‐adrenoceptor [5] = target: T1, human α1A‐adrenoceptor; experiment: Intracellular free calcium mobilization, CHO‐α1A cells; format: cell-based
# [6] = target: T3, human α1D‐adrenoceptor (full length) (Homo sapiens, UniProt P25100); details: CHO‐α1D cells; ligands marked ^a; ref Proudman et al., 2020; cited from earlier work
# T3 construct: human α1D‐adrenoceptor (full length) were used; expressed in transfected cells; host or cells: CHO-K1
# T3 sequence (P25100 1-572): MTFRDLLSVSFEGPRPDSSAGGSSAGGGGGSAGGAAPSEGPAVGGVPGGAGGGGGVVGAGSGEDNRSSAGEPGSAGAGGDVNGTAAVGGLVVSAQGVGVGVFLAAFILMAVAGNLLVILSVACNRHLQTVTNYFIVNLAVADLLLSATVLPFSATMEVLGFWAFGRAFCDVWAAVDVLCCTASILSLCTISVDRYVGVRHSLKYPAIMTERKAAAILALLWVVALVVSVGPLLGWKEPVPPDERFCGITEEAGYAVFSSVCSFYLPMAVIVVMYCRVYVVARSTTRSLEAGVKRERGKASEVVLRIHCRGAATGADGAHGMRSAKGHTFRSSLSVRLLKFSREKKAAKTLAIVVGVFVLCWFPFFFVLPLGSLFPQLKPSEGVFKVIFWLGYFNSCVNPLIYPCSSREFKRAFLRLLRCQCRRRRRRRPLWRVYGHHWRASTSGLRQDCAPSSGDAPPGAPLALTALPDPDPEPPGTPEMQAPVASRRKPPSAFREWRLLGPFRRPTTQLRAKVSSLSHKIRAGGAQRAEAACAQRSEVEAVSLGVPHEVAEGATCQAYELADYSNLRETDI
# human α1A‐adrenoceptor [7] = target: T1, human α1A‐adrenoceptor; experiment: ^3H‐cAMP accumulation, CHO‐α1A cells; format: cell-based; details: for cAMP accumulation % forskolin: CHO‐α1A cells, % of 10 µM forskolin response
# [8] = system: parental CHO cell line without any transfected receptors; experiment: Forskolin‐stimulated cAMP accumulation, parent CHO cells without transfected receptors; format: cell-based, Chinese hamster
# [9] = target: T3, human α1D‐adrenoceptor (full length); experiment: ERK1/2‐phosphorylation (Surefire Alphascreen), CHO‐α1D cells; format: cell-based
# [10] = system: parental CHO cell line without any transfected receptors; experiment: Intracellular calcium mobilization, parent CHO cells without transfected receptors; format: cell-based, Chinese hamster; details: Cricetulus griseus, read-out: Intracellular calcium release % ionomycin
# [11] = target: T3, human α1D‐adrenoceptor (full length); experiment: Intracellular free calcium mobilization, CHO‐α1D cells; format: cell-based
# human α1B‐adrenoceptor [12] = target: T2, human α1B‐adrenoceptor; details: CHO‐α1B cells; printed as IC50> log value; ligand marked ^a; ref Proudman et al., 2020; cited from earlier work
# human α1A‐adrenoceptor [13] = target: T1, human α1A‐adrenoceptor; experiment: ^3H‐prazosin whole‐cell radioligand binding, CHO‐α1A cells
# [14] = target: T3, human α1D‐adrenoceptor (full length); experiment: ^3H‐prazosin whole‐cell radioligand binding, CHO‐α1D cells
# [15] = target: T3, human α1D‐adrenoceptor (full length); experiment: ^3H‐cAMP accumulation, CHO‐α1D cells; format: cell-based; details: cAMP accumulation without forskolin
# [16] = target: T3, human α1D‐adrenoceptor (full length); experiment: ^3H‐cAMP accumulation in the presence of 10 μM forskolin, CHO‐α1D cells; format: cell-based; details: CHO‐α1D cells
# human α1B‐adrenoceptor [17] = target: T2, human α1B‐adrenoceptor; experiment: ^3H‐prazosin whole‐cell radioligand binding, CHO‐α1B cells
# [18] = system: parental CHO cell line without any transfected receptors; experiment: ^3H‐cAMP accumulation, parent CHO cells without transfected receptors; format: cell-based, Chinese hamster
# human α1B‐adrenoceptor [19] = target: T2, human α1B‐adrenoceptor; experiment: ^3H‐cAMP accumulation in the presence of 10 μM forskolin, CHO‐α1B cells; format: cell-based
# human α1A‐adrenoceptor [20] = target: T1, human α1A‐adrenoceptor; experiment: ^3H‐cAMP accumulation in the presence of 10 μM forskolin, CHO‐α1A cells; format: cell-based
# human α1B‐adrenoceptor [21] = target: T2, human α1B‐adrenoceptor; experiment: ^3H‐cAMP accumulation, CHO‐α1B cells; format: cell-based
# [22] = CHO‐α1A cells, % of 10 µM PDBu, ^a bi‐phasic: initial stimulatory part
# [23] = CHO‐α1B cells, maximal response as % PDBu response, for bi‐phasic responses the initial stimulatory part
# [24] = CHO‐α1A cells, maximal response as % of 10 µM ionomycin
# [25] = CHO‐α1D cells, response at 100 µM ligand (no EC50 given)
structure (smiles),measurement,setting,value
COc1ccccc1N1CCN(CCN2C(=O)CC3(CCCC3)CC2=O)CC1 [BMY7378],ERK1/2‐phosphorylation % PDBu,human α1A‐adrenoceptor [1]; [22],29.0 ± 4.7%
same,ERK1/2-phosphorylation % PDBu,"[2]; CHO cells without transfected receptors, maximal response as % of PDBu (10μM) response, mean ± s.e.m.",No response
same,Intracellular calcium release % Ionomycin at 100 µM,"human α1B‐adrenoceptor [3]; CHO‐α1B cells, response at 100 µM ligand (no EC50 given), % of ionomycin response",8.0 ± 2.1%
same,ERK1/2‐phosphorylation % PDBu,human α1B‐adrenoceptor [4]; [23],No response
same,Intracellular calcium release % ionomycin,human α1A‐adrenoceptor [5]; [24],25.0 ± 3.4%
same,"% site 1 (% of the response at the first component), α1D two‐component binding curve",[6],57.7 ± 2.6%
same,cAMP accumulation % forskolin,human α1A‐adrenoceptor [7],No response
same,cAMP accumulation (in presence of forskolin) Log EC50,"[8]; CHO cells without transfected receptors, in presence of forskolin",No response
same,ERK1/2‐phosphorylation % PDBu at 100 µM,[9]; [25],3.0 ± 1.5%
same,Emax,"[10]; CHO cells without transfected receptors, response at maximum concentration used (c2), as % of ionomycin (10μM) response, mean ± s.e.m.",7.8 ± 2.2%
same,Intracellular calcium release % Ionomycin at 100 µM,[11]; [25],4.2 ± 1.0%
CC(C)(C)NCC(O)COc1cccc2[nH]c(=O)[nH]c12 (stereo not shown) [CGP 12177],ERK1/2‐phosphorylation % PDBu,human α1A‐adrenoceptor [1]; [22],86.8 ± 2.6%
same,Emax,"[2]; Cricetulus griseus, CHO cells without transfected receptors, maximal response as % of PDBu (10μM) response, mean ± s.e.m., read-out: ERK1/2-phosphorylation % PDBu",22.8 ± 4.3%
same,EC50,"[2]; Cricetulus griseus, CHO cells without transfected receptors, mean ± s.e.m., read-out: ERK1/2-phosphorylation Log EC50 (converted)",977 nM
same,ERK1/2‐phosphorylation response in parent CHO cells,[2]; untransfected cells,stimulated ERK1/2‐phosphorylation responses
same,Intracellular calcium release Log EC50,"human α1B‐adrenoceptor [3]; CHO‐α1B cells, given as log EC50 (negative numbers)",No response
same,Intracellular calcium release % ionomycin,"human α1B‐adrenoceptor [3]; CHO‐α1B cells, maximal response as % of 10 µM ionomycin response",No response
same,ERK1/2‐phosphorylation % PDBu,human α1B‐adrenoceptor [4]; [23],38.1 ± 3.8%
same,Log efficacy ratio KD /EC50,human α1A‐adrenoceptor [5],1.04
same,EC50,"human α1A‐adrenoceptor [5]; CHO‐α1A cells, given as log EC50 (negative), read-out: Intracellular calcium release Log EC50 (converted)",661 nM
same,Intracellular calcium release % ionomycin,human α1A‐adrenoceptor [5]; [24],37.0 ± 2.8%
same,"Log IC50 α1B, ^3H‐prazosin whole cell binding",human α1B‐adrenoceptor [12],IC50>−4
same,ERK1/2‐phosphorylation % PDBu,"[9]; CHO‐α1D cells, maximal response as % of PDBu",25.8 ± 3.2%
same,Affinity selectivity ratio α1A vs α1B,human α1A‐adrenoceptor [13],>13.8 fold
same,Affinity selectivity ratio α1B vs α1D,[14],>1.6 fold
same,Intracellular calcium release Log EC50,"[11]; CHO‐α1D cells, log values given negative",No response
same,Intracellular calcium release % ionomycin,"[11]; CHO‐α1D cells, maximal response as % of 10 µM ionomycin",No response
C=CCc1ccccc1OC(C)C1=NCCN1 (stereo not shown) [Allyphenyline],EC50,human α1A‐adrenoceptor [1],1.58 nM
same,ERK1/2‐phosphorylation % PDBu,human α1A‐adrenoceptor [1],79.3 ± 3.5%
same,cAMP Log EC50,[15],No response
same,Emax at 100 µM,"[2]; Cricetulus griseus, CHO, read-out: ERK1/2-phosphorylation % PDBu at 100μM",12.7 ± 3.1%
same,cAMP (in presence of forskolin) Fold increase,[16]; fold increase of the forskolin response,No response
same,cAMP (in presence of forskolin) Log EC50,"[16]; in presence of forskolin, log values given negative",No response
same,EC50,human α1B‐adrenoceptor [3],79.4 nM
same,Intracellular calcium release % ionomycin,human α1B‐adrenoceptor [3],39.9 ± 1.9%
same,Log efficacy ratio KD /EC50,human α1B‐adrenoceptor [3],1.99
same,EC50,human α1B‐adrenoceptor [4],282 nM
same,ERK1/2‐phosphorylation % PDBu,human α1B‐adrenoceptor [4],65.3 ± 3.0%
same,Kd,human α1B‐adrenoceptor [17],7760 nM
same,EC50,human α1A‐adrenoceptor [5],2.95 nM
same,Intracellular calcium release % ionomycin,human α1A‐adrenoceptor [5],58.6 ± 3.0%
same,Log efficacy ratio KD /EC50,human α1A‐adrenoceptor [5],1.74
same,cAMP accumulation % forskolin,[18],No response
same,EC50,human α1A‐adrenoceptor [7],89.1 nM
same,cAMP accumulation % forskolin,human α1A‐adrenoceptor [7],82.4 ± 5.5%
same,cAMP accumulation (in presence of forskolin) % forskolin-stim cAMP,[8],No response
same,cAMP accumulation (in presence of forskolin) Log EC50,[8],No response
same,EC50,human α1B‐adrenoceptor [19],51.3 nM
same,cAMP accumulation (in presence of forskolin) Fold increase,"human α1B‐adrenoceptor [19]; CHO‐α1B cells, fold increase of the forskolin response",1.87 ± 0.07 fold
same,EC50,[9],6920 nM
same,ERK1/2‐phosphorylation % PDBu,[9],29.1 ± 4.7%
same,EC50,human α1A‐adrenoceptor [20],7.94 nM
same,cAMP accumulation (in presence of forskolin) Fold increase,"human α1A‐adrenoceptor [20]; CHO‐α1A cells, fold increase of the forskolin response",2.38 ± 0.08 fold
same,Affinity selectivity ratio α1A vs α1B,human α1A‐adrenoceptor [13],47.9 fold
same,Affinity selectivity ratio α1A vs α1D,human α1A‐adrenoceptor [13],8.7 fold
same,Kd,human α1A‐adrenoceptor [13],162 nM
same,Affinity selectivity ratio α1B vs α1D,[14],5.5 fold
same,Kd,[14],1410 nM
same,Emax,[10]; CHO,5.9 ± 1%
same,EC50,[11],316 nM
same,Intracellular calcium release % ionomycin,[11],12.3 ± 1.4%
same,Log efficacy ratio KD /EC50,[11],0.65
same,EC50,human α1B‐adrenoceptor [21],174 nM
same,cAMP accumulation % forskolin,"human α1B‐adrenoceptor [21]; CHO‐α1B cells, % forskolin maximum response",5.5 ± 0.9%

# — PMC8343220, “The selectivity of α‐adrenoceptor agonists for the human α1A, α1B, and α1D‐adrenoceptors” (Pharmacology Research & Perspectives, 2021)
